Data published in ChEMBL document CHEMBL3822385, “Antileishmanial activity of new thiophene-indole hybrids: Design, synthesis, biological and cytotoxic evaluation, and chemometric studies” (Bioorg Med Chem, 2016).
In brackets after ≈: the same amount, converted by molar mass. Activity calls are given as the source filed them. No cut-off for these calls is given here.

Key:
Leishmania amazonensis [1] = experiment: Antileishmanial activity against Leishmania amazonensis IFLA/BR/67/PH8 promastigotes assessed as parasite growth inhibition incubated for 72 hrs using neubauer chamber by microscopic analysis; type: functional, organism-based; settings: IFLA/BR/67/PH8, 72 h
[2] = Hemolytic activity in human O+ erythrocytes after 1 hr by spectrophotometry; type: ADME, cell-based, Erythrocyte; settings: for HC50 at 1 h: human O+ erythrocytes
[3] = Selectivity index, ratio of HC50 for human O+ erythrocytes to IC50 for Leishmania amazonensis IFLA/BR/67/PH8 promastigotes
Leishmania amazonensis [4] = experiment: Antileishmanial activity against trivalent antimony-resistant Leishmania amazonensis IFLA/BR/67/PH8 promastigotes assessed as parasite growth inhibition incubated for 72 hrs using neubauer chamber by microscopic analysis; type: functional, organism-based; settings: IFLA/BR/67/PH8, 72 h
Leishmania amazonensis [5] = experiment: Induction of genomic DNA fragmentation in Leishmania amazonensis IFLA/BR/67/PH8 promastigotes at 1 to 4 times antileishmanial IC50 after overnight incubation by GelRed staining based agarose gel electrophoresis; type: functional, organism-based

Compound	IC50 (Leishmania amazonensis [1]) [µg/mL]	HC50 at 1 h [2] [µg/mL]	Selectivity Index [3]	IC50 (Leishmania amazonensis [4]) [µg/mL]	Activity (Leishmania amazonensis [5])	HC50 ([2]; erythrocyte, 1 h) [µg/mL]
COc1ccc2[nH]cc(/C=N/c3sc4c(c3C#N)CCC4)c2c1	125 (≈ 388 µM)	> 400	>3.2	–	–	–
N#Cc1c(/N=C/c2c[nH]c3ncccc23)sc2c1CCCCCC2	651 (≈ 1950 µM)	> 400	>0.6	–	–	–
COc1ccc2[nH]cc(/C=N/c3sc4c(c3C#N)CCCCCC4)c2c1	6.4 (≈ 17.6 µM)	> 400	>62.7	–	–	–
Cc1ccc2[nH]cc(/C=N/c3sc4c(c3C#N)CCCCCC4)c2c1	6.5 (≈ 18.7 µM)	> 400	>61.3	–	–	–
Cc1ccc2[nH]cc(/C=N/c3sc4c(c3C#N)CCCC4)c2c1	2.3 (≈ 7.2 µM)	> 400	>172.4	–	–	–
N#Cc1c(/N=C/c2c[nH]c3cccc([N+](=O)[O-])c23)sc2c1CCCCCC2	9.4 (≈ 24.8 µM)	> 400	>42.5	–	–	–
N#Cc1c(/N=C/c2c[nH]c3ncccc23)sc2c1CCC2	289 (≈ 988 µM)	> 400	>1.4	–	–	–
Cc1cccc2c(/C=N/c3sc4c(c3C#N)CCC4)c[nH]c12	91.6 (≈ 300 µM)	–	–	–	–	–
Cc1cccc2c(/C=N/c3sc4c(c3C#N)CCCCC4)c[nH]c12	786 (≈ 2360 µM)	> 400	>0.5	–	–	–
N#Cc1c(/N=C/c2c[nH]c3c2ccc2ccccc23)sc2c1CCCCC2	18.7 (≈ 50.6 µM)	> 400	>21.4	–	–	–
N#Cc1c(/N=C/c2c[nH]c3ccccc23)sc2c1CCC2	48.9 (≈ 168 µM)	> 400	>8.2	–	–	–
MEGLUMINE ANTIMONATE [listing 1 of 2 here]	–	–	0.02	–	–	–
N#Cc1c(/N=C/c2c[nH]c3ccccc23)sc2c1CCCC2	4.5 (≈ 14.7 µM)	> 400	>88.8	–	–	–
N#Cc1c(/N=C/c2c[nH]c3cccc([N+](=O)[O-])c23)sc2c1CCCC2	299 (≈ 853 µM)	> 400	>1.3	–	–	–
Cc1ccc2[nH]cc(/C=N/c3sc4c(c3C#N)CCC4)c2c1	7.1 (≈ 23.2 µM)	> 400	>56.6	–	–	–
N#Cc1ccc2[nH]cc(/C=N/c3sc4c(c3C#N)CCCCCC4)c2c1	2.1 (≈ 5.86 µM)	> 400	>193.2	2.8 (≈ 7.81 µM)	Active	–
MEGLUMINE ANTIMONATE [listing 2 of 2 here]	–	–	–	–	–	681.2
N#Cc1c(/N=C/c2c[nH]c3c2ccc2ccccc23)sc2c1CCCCCC2	9.4 (≈ 24.5 µM)	> 400	>42.6	–	–	–

Compound	IC50 (Leishmania amazonensis [1]) [µg/mL]	HC50 at 1 h [2] [µg/mL]	Selectivity Index [3]	IC50 (Leishmania amazonensis [4]) [µg/mL]	Activity (Leishmania amazonensis [5])	HC50 ([2]; erythrocyte, 1 h) [µg/mL]
Cc1cccc2c(/C=N/c3sc4c(c3C#N)CCCCCC4)c[nH]c12	4.1 (≈ 11.8 µM)	> 400	>96.6	–	–	–
N#Cc1ccc2[nH]cc(/C=N/c3sc4c(c3C#N)CCCC4)c2c1	4.7 (≈ 14.2 µM)	> 400	>84.7	–	–	–
N#Cc1ccc2[nH]cc(/C=N/c3sc4c(c3C#N)CCC4)c2c1	7.4 (≈ 23.4 µM)	> 400	>53.7	–	–	–
N#Cc1c(/N=C/c2c[nH]c3ccccc23)sc2c1CCCCC2	3.2 (≈ 10 µM)	> 400	>124.6	–	–	–
N#Cc1c(/N=C/c2c[nH]c3ccccc23)sc2c1CCCCCC2	5.4 (≈ 16.2 µM)	> 400	>73.2	–	–	–
Cc1ccc2[nH]cc(/C=N/c3sc4c(c3C#N)CCCCC4)c2c1	6.1 (≈ 18.3 µM)	> 400	>65.6	–	–	–
Potassium antimonyl tartrate trihydrate	–	–	38.2	–	–	–
N#Cc1c(/N=C/c2c[nH]c3ncccc23)sc2c1CCCC2	228 (≈ 744 µM)	> 400	>1.7	–	–	–
N#Cc1c(/N=C/c2c[nH]c3c2ccc2ccccc23)sc2c1CCC2	7.9 (≈ 23.1 µM)	> 400	>50.7	–	–	–
N#Cc1c(/N=C/c2c[nH]c3cccc([N+](=O)[O-])c23)sc2c1CCCCC2	1070 (≈ 2930 µM)	> 400	>0.3	–	–	–
N#Cc1ccc2[nH]cc(/C=N/c3sc4c(c3C#N)CCCCC4)c2c1	3.4 (≈ 9.87 µM)	> 400	>115.6	–	–	–
N#Cc1c(/N=C/c2c[nH]c3cccc([N+](=O)[O-])c23)sc2c1CCC2	171 (≈ 509 µM)	–	–	–	–	–
N#Cc1c(/N=C/c2c[nH]c3c2ccc2ccccc23)sc2c1CCCC2	29.7 (≈ 83.6 µM)	> 400	>13.5	–	–	–
COc1ccc2[nH]cc(/C=N/c3sc4c(c3C#N)CCCCC4)c2c1	10.2 (≈ 29.2 µM)	> 400	>39.1	–	–	–
COc1ccc2[nH]cc(/C=N/c3sc4c(c3C#N)CCCC4)c2c1	6 (≈ 17.9 µM)	> 400	>66.8	–	–	–
C[C@@H]1[C@H](O)[C@@H](C)/C=C/C=C/C=C/C=C/C=C/C=C/C=C/[C@H](O[C@@H]2O[C@H](C)[C@@H](O)[C@H](N)[C@@H]2O)C[C@@H]2O[C@](O)(C[C@@H](O)C[C@@H](O)[C@H](O)CC[C@@H](O)C[C@@H](O)CC(=O)O[C@H]1C)C[C@H](O)[C@H]2C(=O)O [AMPHOTERICIN B]	0.2 (≈ 0.216 µM)	22.4	124.5	–	–	–
N#Cc1c(/N=C/c2c[nH]c3ncccc23)sc2c1CCCCC2	8.7 (≈ 27.2 µM)	> 400	>45.8	–	–	–
Cc1cccc2c(/C=N/c3sc4c(c3C#N)CCCC4)c[nH]c12	322 (≈ 1010 µM)	> 400	>1.2	–	–	–
